Results on four molecules are retold here after US4315941A, “Urazole analogs of prostaglandin derivatives” (Beecham Group Limited, priority 1979, dated 1982).

Structures are written as SMILES.

The assay relates to 5-hydroxytryptamine or histamine induced bronchoconstriction. The assay can be described thus: Bronchodilation activity: inhibition of 5-hydroxytryptamine or histamine induced bronchoconstriction in the anaesthetised artificially respired guinea-pig (Konzett-Rossler preparation). It is filed as in vivo, guinear-pig. Conditions: Cavia porcellus, iv, 5-hydroxytryptamine or histamine induced bronchoconstriction (Konzett-Rossler). The text has this: The compounds were examined for their ability to inhibit 5-hydroxytryptamine or histamine induced bronchoconstriction in the anaesthetised artificially respired guinear-pig (Konzett-Rossler preparation).
The ED50 is the dose that gives a 50% effect, or the effect in half of the subjects. Low readings indicate an effect at a small dose, high ones a need for a large dose. Turning to `CCCCC(C)C(C)(O)CCn1c(=O)n(C)c(=O)n1C/C=C\CCCCC(C)O` (stereo not shown) [Compound 3], it took a dose of 0.0175 mg/kg to reach the 50% effect level (ED50).

`CC(O)CCCC/C=C\Cn1c(=O)n(C)c(=O)n1CCC(C)(O)C1CCCCC1` (stereo not shown) [Compound 7] came in with an ED50 of 0.16 mg/kg. This ED50 lies about 9.1-fold higher than the previous one.

As to `CCCCC(C)C(C)(O)CCn1c(=O)n(C)c(=O)n1CCCCCCCCC(C)O` (stereo not shown) [Compound 1, 1-(9'-Hydroxydecyl)-2-(3"-hydroxy-3",4"-dimethyloctyl)-4-methyl-1,2,4-triazolidine-3,5-dione], it took a dose of 0.02 mg/kg to reach the 50% effect level (ED50).

The molecule `CCCCCCC(C)(O)CCn1c(=O)n(C)c(=O)n1CCCCCCCC(C)O` (stereo not shown) [Compound 4] had a median effective dose (ED50) of 0.0042 mg/kg.
